Test results published in patent US12187742B2 (XRAD Therapeutics, Inc., priority 2018, dated 2025).
Where a name gives a salt, the structure may show the parent alone.

Experiments:
ATM = ATM (Homo sapiens (Human), UniProt Q13315); test: ATM in Cell Western Assay (pKAP1 in etoposide-treated MCF-7 cells); type: cell-based; conditions: MCF-7 cells, etoposide 100 μM, 1 hr, pKAP1 readout
In short: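 After paraformaldehyde fixation and Triton X-100 permeabilization, immunostained plates were read by infrared scanning (ODYSSEY CLx). Compound was given as 10 doses, 3-fold dilutions from a 1 μM final top concentration.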

DNA-PK = DNA-PK (Homo sapiens (Human), UniProt P78527); test: DNA-PK Enzyme-Linked Immunosorbent Assay (phosphorylation of GST-p53 (1-101) peptide); type: biochemical; conditions: ELISA, ATP 20 μM
In short: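 Inhibition measured by 450 nm absorbance after HRP/TMB detection of phospho-Ser15 on immobilized GST-p53 (1-101). The kinase reaction used 0.1 μg/mL DNA-PK and 20 μM ATP, 1 h at 25 °C. Ten 3-fold compound dilutions, top final concentration 100 nM.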

ATM, sequence (Q13315 whole entry): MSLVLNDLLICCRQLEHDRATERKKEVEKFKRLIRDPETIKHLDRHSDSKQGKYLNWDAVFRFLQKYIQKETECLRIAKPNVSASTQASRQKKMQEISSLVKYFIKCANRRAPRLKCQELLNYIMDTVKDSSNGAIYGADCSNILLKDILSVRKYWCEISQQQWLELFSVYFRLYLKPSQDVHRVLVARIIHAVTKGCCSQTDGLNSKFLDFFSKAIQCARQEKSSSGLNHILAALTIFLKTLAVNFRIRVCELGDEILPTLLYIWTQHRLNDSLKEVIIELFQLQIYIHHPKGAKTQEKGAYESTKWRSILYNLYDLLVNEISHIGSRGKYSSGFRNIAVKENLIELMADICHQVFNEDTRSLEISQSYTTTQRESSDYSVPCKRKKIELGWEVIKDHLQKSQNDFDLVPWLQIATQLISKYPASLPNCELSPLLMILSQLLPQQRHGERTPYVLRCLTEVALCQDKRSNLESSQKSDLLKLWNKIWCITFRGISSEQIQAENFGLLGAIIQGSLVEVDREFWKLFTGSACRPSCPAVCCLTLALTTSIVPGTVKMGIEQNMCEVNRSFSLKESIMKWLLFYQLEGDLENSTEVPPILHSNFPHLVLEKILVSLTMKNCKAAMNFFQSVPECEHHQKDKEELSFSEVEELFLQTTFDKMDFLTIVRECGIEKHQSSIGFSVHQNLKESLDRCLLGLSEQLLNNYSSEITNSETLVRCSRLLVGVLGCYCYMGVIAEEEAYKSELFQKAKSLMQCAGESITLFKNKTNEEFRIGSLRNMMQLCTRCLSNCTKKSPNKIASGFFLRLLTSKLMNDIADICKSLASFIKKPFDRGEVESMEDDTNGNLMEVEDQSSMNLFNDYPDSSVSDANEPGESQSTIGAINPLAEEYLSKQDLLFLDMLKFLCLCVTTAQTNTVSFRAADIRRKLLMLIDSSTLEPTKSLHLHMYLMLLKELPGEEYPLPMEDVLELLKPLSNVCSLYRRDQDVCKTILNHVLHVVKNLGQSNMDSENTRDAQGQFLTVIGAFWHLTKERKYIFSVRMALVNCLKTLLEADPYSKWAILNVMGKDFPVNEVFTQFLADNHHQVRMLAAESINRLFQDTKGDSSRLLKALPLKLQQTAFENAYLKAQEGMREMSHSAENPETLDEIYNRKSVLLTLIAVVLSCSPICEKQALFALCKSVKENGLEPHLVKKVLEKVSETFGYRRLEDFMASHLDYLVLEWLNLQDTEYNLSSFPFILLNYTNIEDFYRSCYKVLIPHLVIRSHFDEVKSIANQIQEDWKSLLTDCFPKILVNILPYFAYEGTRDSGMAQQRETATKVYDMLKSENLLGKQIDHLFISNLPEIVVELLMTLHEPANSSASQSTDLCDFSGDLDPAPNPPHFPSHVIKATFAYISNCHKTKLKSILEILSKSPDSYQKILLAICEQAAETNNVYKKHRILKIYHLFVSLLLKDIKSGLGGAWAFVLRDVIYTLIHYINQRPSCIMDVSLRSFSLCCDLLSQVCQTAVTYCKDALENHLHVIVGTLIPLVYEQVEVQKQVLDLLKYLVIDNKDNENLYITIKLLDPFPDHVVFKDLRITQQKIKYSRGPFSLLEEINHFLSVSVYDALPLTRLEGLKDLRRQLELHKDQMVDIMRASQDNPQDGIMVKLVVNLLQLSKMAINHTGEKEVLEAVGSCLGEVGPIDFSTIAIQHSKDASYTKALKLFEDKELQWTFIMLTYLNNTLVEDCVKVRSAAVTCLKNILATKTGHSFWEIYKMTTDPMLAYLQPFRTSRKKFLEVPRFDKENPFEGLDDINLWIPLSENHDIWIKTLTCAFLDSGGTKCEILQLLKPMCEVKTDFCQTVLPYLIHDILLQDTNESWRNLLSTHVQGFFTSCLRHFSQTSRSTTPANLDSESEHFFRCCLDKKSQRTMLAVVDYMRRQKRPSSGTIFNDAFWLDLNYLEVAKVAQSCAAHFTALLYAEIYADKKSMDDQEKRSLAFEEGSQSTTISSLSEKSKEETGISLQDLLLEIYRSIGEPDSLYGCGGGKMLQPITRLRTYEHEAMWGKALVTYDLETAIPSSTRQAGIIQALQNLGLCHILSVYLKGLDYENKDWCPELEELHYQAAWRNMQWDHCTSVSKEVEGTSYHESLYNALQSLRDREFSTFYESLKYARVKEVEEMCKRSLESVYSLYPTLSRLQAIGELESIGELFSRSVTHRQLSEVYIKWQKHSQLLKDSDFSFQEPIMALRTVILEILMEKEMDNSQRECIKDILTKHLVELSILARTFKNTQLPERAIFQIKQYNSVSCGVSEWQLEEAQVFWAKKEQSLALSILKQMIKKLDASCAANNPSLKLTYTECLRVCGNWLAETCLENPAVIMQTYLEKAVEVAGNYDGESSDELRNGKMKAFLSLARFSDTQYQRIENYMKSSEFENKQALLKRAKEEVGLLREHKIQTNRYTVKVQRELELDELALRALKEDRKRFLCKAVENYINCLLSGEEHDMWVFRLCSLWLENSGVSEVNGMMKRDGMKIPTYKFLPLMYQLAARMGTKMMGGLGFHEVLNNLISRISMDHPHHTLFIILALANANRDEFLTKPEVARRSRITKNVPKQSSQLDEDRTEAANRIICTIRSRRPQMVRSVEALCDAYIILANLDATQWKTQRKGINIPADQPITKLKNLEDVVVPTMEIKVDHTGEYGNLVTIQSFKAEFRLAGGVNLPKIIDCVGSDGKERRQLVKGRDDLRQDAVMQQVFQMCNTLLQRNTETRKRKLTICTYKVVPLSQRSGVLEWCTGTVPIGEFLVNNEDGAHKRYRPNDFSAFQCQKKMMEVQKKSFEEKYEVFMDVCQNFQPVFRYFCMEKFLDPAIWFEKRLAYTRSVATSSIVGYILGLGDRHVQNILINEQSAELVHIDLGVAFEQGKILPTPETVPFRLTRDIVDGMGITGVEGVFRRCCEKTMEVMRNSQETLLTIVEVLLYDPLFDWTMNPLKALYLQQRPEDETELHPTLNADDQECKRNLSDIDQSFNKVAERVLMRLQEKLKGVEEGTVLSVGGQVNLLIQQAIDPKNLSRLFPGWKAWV

| IC50 (ATM) [nM] | IC50 (DNA-PK) [nM] | Compound |
| --- | --- | --- |
| 1 to 100 | 1 to 100 | CN(C)CCCOc1ncc(-c2cc3c4c(cnc3cc2F)N(C)C(=O)C42CC2)cc1NS(=O)(=O)C1CC1 [Example 66, N-(2-(3-(Dimethylamino)propoxy)-5-(7′-fluoro-3′-methyl-2′-oxo-2′,3′-dihydrospiro[cyclopropane-1,1′-pyrrolo[2,3-c]quinolin]-8′-yl)pyridin-3-yl) cyclopropanesulfonamide] |
| 0.5 to 1 | < 0.5 | CN1C(=O)C2(CC2)c2c1cnc1ccc(-c3cnc(OCCCN4CCCCC4)c(NS(=O)(=O)c4ccccc4)c3)cc21 [Example 67, N-(5-(3′-Methyl-2′-oxo-2′,3′-dihydrospiro[cyclopropane-1,1′-pyrrolo[2,3-c]quinolin]-8′-yl)-2-(3-(piperidin-1-yl)propoxy)pyridin-3-yl)benzenesulfonamide] |
| 1 to 100 | < 0.5 | CN1C(=O)C2(CC2)c2c1cnc1ccc(-c3cnc(OCCCN4CCCCC4)c(NS(=O)(=O)C4CC4)c3)cc21 [Example 68, N-(5-(3′-Methyl-2′-oxo-2′,3′-dibydrospiro[cyclopropane-1,1′-pyrrolo[2,3-c]quinolin]-8′-yl)-2-(3-(piperidin-1-yl)propoxy)pyridin-3-yl)cyclopropanesulfonamide] |
| 1 to 100 | 1 to 100 | CN(C)CCCNc1ncc(-c2ccc3ncc4c(c3c2)C2(CC2)C(=O)N4C)cn1 [Example 70, 8′-(2-((3-(Dimethylamino)propyl)amino)pyrimidin-5-yl)-3′-methylspiro[cyclopropane-1,1′-pyrrolo[2,3-c]quinolin]-2′(3′-H)-one] |
| 1 to 100 | 1 to 100 | CN1CCCC(COc2ncc(-c3ccc4ncc5c(c4c3)C3(CC3)C(=O)N5C)cc2NS(=O)(=O)c2ccccc2)C1 (stereo not drawn) [Example 84, N-(5-(3′-Methyl-2′-oxo-2′,3′-dihydrospiro[cyclopropane-1,1′-pyrrolo[2,3-c]quinolin]-8′-yl)-2-((1-methylpiperidin-3-yl)methoxy)pyridin-3-yl)benzenesulfonamide] |
| 0.5 to 1 | < 0.5 | CN(C)CCCOc1ncc(-c2ccc3ncc4c(c3c2)C2(CC2)C(=O)N4C)cc1NS(=O)(=O)c1ccc(F)cc1 [Example 88, N-(2-(3-(Dimethylamino)propoxy)-5-(3′-methyl-2′-oxo-2′,3′-dihydrospiro [cyclopropane-1,1′-pyrrolo[2,3-c]quinolin]-8′-yl)pyridin-3-yl)-4-fluorobenzenesulfonamide] |
| 0.5 to 1 | 1 to 100 | CN(C)CCCOc1ccc(-c2ccc3ncc4c(c3c2)C2(CC2)C(=O)N4C)cc1NS(=O)(=O)c1cccc(F)c1 [Example 90] |
| 1 to 100 | < 0.5 | CN(C)CCCOc1ncc(-c2ccc3ncc4c(c3c2)C2(CC2)C(=O)N4C)cc1NS(=O)(=O)c1cnn(C)c1 [Example 91, N-(2-(3-(Dimethylamino)propoxy)-5-(3′-methyl-2′-oxo-2′,3′-dihydrospiro [cyclopropane-1,1′-pyrrolo[2,3-c]quinolin]-8′-yl)pyridin-3-yl)-1-methyl-1H-pyrazole-4-sulfonamide] |
| 0.5 to 1 | < 0.5 | CN(C)CCCOc1ncc(-c2ccc3ncc4c(c3c2)C2(CC2)C(=O)N4C)cc1NS(=O)(=O)c1ccsc1 [Example 92, N-(2-(3-(Dimethylamino)propoxy)-5-(3′-methyl-2′-oxo-2′,3′-dihydrospiro [cyclopropane-1,1′-pyrrolo[2,3-c]quinolin]-8′-yl)pyridin-3-yl)thiophene-3-sulfonamide] |

The remaining lines, values behind:

| Compound | IC50 (ATM) [nM] | IC50 (DNA-PK) [nM] |
| --- | --- | --- |
| CN(C)CCCOc1ncc(-c2ccc3ncc4c(c3c2)C2(CC2)C(=O)N4C)cc1NS(=O)(=O)C1CCC1 [Example 69, N-(2-(3-(Dimethylamino)propoxy)-5-(3′-methyl-2′-oxo-2′,3′-dihydrospiro[cyclopropane-1,1′-pyrrolo[2,3-c]quinolin]-8′-yl)pyridin-3-yl)cyclobutanesulfonamide] | 1 to 100 | 1 to 100 |
| CN(C)CCCOc1ncc(-c2ccc3ncc4c(c3c2)C2(CC2)C(=O)N4C)cn1 [Example 71, 8′-(2-(3-(Dimethylamino)propoxy)pyrimidin-5-yl)-3′-methylspiro [cyclopropane-1,1′-pyrrolo[2,3-c]quinolin]-2′(3′-H)-one] | 1 to 100 | > 100 |
| CN(C)CCCOc1ncc(-c2ccc3ncc4c(c3c2)CC2(CCC2)C(=O)N4C)cc1NS(=O)(=O)c1ccccc1 [Example 73, N-(2-(3-(Dimethylamino)propoxy)-5-(4-methyl-3-oxo-3,4-dihydro-1H-spiro[benzo[f][1,7]naphthyridine-2,1′-cyclobutan]-9-yl)pyridin-3-yl)benzenesulfonamide] | 1 to 100 | 1 to 100 |
| CNCCCCOc1ncc(-c2ccc3ncc4c(c3c2)C2(CC2)C(=O)N4C)cc1NS(=O)(=O)c1ccccc1 [Example 75, N-(5-(3-Methyl-2′-oxo-2′,3′-dihydrospiro [cyclopropane-1,1′-pyrrolo[2,3-c]quinolin]-8′-yl)-2-(4-(methylamino)butoxy)pyridin-3-yl) benzenesulfonamide] | 1 to 100 | 1 to 100 |
| CN(C)CCCOc1ncc(-c2ccc3ncc4c(c3c2)C2(CC2)C(=O)N4C)cc1NS(=O)(=O)C1COC1 [Example 76] | 1 to 100 | 0.5 to 1 |
| CCCS(=O)(=O)Nc1cc(-c2ccc3ncc4c(c3c2)C2(CC2)C(=O)N4C)cnc1OCCCN(C)C [Example 77, N-(2-(3-(Dimethylamino)propoxy)-5-(3′-methyl-2′-oxo-2′,3′-dihydrospiro [cyclopropane-1,1′-pyrrolo [2,3-c]quinolin]-8′-yl)pyridin-3-yl)propane-1-sulfonamide] | 1 to 100 | 1 to 100 |
| CN1C(=O)C2(CC2)c2c1cnc1ccc(-c3cnc(OCCC4CCCN4C)c(NS(=O)(=O)c4ccccc4)c3)cc21 (stereo not drawn) [Example 78, N-(5-(3′-Methyl-2′-oxo-2′,3′-dihydrospiro[cyclopropane-1,1′-pyrrolo[2,3-c]quinolin]-8′-yl)-2-(2-(1-methylpyrrolidin-2-yl)ethoxy)pyridin-3-yl)benzenesulfonamide] | 1 to 100 | 1 to 100 |
| CN1C(=O)C2(CC2)c2c1cnc1ccc(-c3cnc(OCCC4CCCN4C)c(NS(=O)(=O)C4CC4)c3)cc21 (stereo not drawn) [Example 79, N-(5-(3-Methyl-2′-oxo-2′,3′-dihydrospiro[cyclopropane-1,1′-pyrrolo[2,3-c]quinolin]-8′-yl)-2-(2-(1-methylpyrrolidin-2-yl)ethoxy)pyridin-3-yl)cyclopropanesulfonamide] | 1 to 100 | 1 to 100 |
| CN1C(=O)C2(CC2)c2c1cnc1ccc(-c3cnc(OCCC4CCCCN4C)c(NS(=O)(=O)C4CC4)c3)cc21 (stereo not drawn) [Example 80, N-(5-(3′-Methyl-2′-oxo-2′,3′-dihydrospiro [cyclopropane-1,1′-pyrrolo[2,3-c]quinolin]-8′-yl)-2-(2-(1-methylpiperidin-2-yl)ethoxy)pyridin-3-yl)cyclopropanesulfonamide] | 1 to 100 | 1 to 100 |
| CN1C(=O)C2(CC2)c2c1cnc1ccc(-c3cnc(OCCC4CCCCN4C)c(NS(=O)(=O)c4ccccc4)c3)cc21 (stereo not drawn) [Example 81, N-(5-(3′-Methyl-2′-oxo-2′,3′-dihydrospiro [cyclopropane-1,1′-pyrrolo[2,3-c]quinolin]-8′-yl)-2-(2-(1-methylpiperidin-2-yl)ethoxy)pyridin-3-yl)benzenesulfonamide] | 1 to 100 | 1 to 100 |
| COc1cc2ncc3c(c2cc1-c1cnc(OCCCN(C)C)c(NS(=O)(=O)c2ccccc2)c1)C1(CC1)C(=O)N3C [Example 82, N-(2-(3-(Dimethylamino)propoxy)-5-(7-methoxy-3′-methyl-2′-oxo-2′,3′-dihydrospiro[cyclopropane-1,1′-pyrrolo[2,3-c]quinolin]-8′-yl)pyridin-3-yl) benzenesulfonamide] | 0.5 to 1 | 1 to 100 |
| COCCS(=O)(=O)Nc1cc(-c2ccc3ncc4c(c3c2)C2(CC2)C(=O)N4C)cnc1OCCCN(C)C [Example 83, N-(2-(3-(Dimethylamino)propoxy)-5-(3′-methyl-2′-oxo-2′,3′-dihydrospiro [cyclopropane-1,1′-pyrrolo[2,3-c]quinolin]-8′-yl)pyridin-3-yl)-2-methoxyethane-1-sulfonamide] | < 0.5 | 1 to 100 |
| CN1CCCC(COc2ncc(-c3ccc4ncc5c(c4c3)C3(CC3)C(=O)N5C)cc2NS(=O)(=O)C2CC2)C1 (stereo not drawn) [Example 86, N-(5-(3′-Methyl-2′-oxo-2′,3′-dihydrospiro[cyclopropane-1,1′-pyrrolo[2,3-c]quinolin]-8′-yl)-2-((1-methylpiperidin-3-yl)methoxy)pyridin-3-yl)cyclopropanesulfonamide] | 1 to 100 | 1 to 100 |
| CN(C)CCCOc1ncc(-c2ccc3ncc4c(c3c2)C2(CC2)C(=O)N4C)cc1NS(=O)(=O)N1CCCC1 [Example 89, N-(2-(3-(Dimethylamino)propoxy)-5-(3′-methyl-2′-oxo-2′,3′-dihydrospiro [cyclopropane-1,1′-pyrrolo[2,3-c]quinolin]-8′-yl)pyridin-3-yl)pyrrolidine-1-sulfonamide hydrochloride] | 0.5 to 1 | < 0.5 |
| COc1ccc(S(=O)(=O)Nc2cc(-c3ccc4ncc5c(c4c3)C3(CC3)C(=O)N5C)cnc2OCCCN(C)C)cc1 [Example 93, N-(2-(3-(Dimethylamino)propoxy)-5-(3′-methyl-2′-oxo-2′,3′-dihydrospiro [cyclopropane-1,1′-pyrrolo[2,3-c]quinolin]-8′-yl)pyridin-3-yl)-4-methoxybenzenesulfonamide] | 1 to 100 | < 0.5 |
